# Patent US20240124442A1, “TRICYCLIC-AMIDO-BICYCLIC PRMT5 INHIBITORS” (AMGEN INC., priority 2021, published 2024)
# What was measured:
# HCT116 MTAP null cells = test: HCT116 MTAP null cell line proliferation / cell viability (CellTiter-Glo, 6 days); format: cell-based; details: 144 h; HCT116 MTAP null cells, 6 days treatment, CellTiter-Glo cell viability; read-out: HCT-116 MTAP null IC50
# Description: (§1) HCT116 Proliferation Activity
# (§2) To assess selective anti-proliferative activity of compounds of the invention in cells that have loss expression of MTAP, an HCT-116 isogenic cell line pair was utilized where one cell line was engineered to genetically knockout both MTAP alleles. Cell viability was then assessed in both the parent HCT-116 cell line and the MTAP null cell line after 6 days of treatment with compounds of the present invention. Selective anti-proliferative activity in the MTAP null cell line indicates MTA-cooperative inhibition of PRMT5 and ability to inhibit growth of cancer cells that have loss of MTAP.
# (§3) HCT116 MTAP null and WT cells were seeded in 96-well tissue culture plates in RPMI 1640 media+10% fetal bovine serum. Plates were incubated overnight at 37° C. and 5% CO2. Cells were then treated with an 8- or 9-point serial dilution of compound, using a top concentration of 1, or 10 μM, 1:3 serial dilution steps and, a DMSO-only control. Cells were incubated in the presence of drug for 6 days. Effects on cell viability were measured with the CellTiter-Glo® Luminescent Cell Viability Assay (Promega) per manufacturer's recommendation. Assay plates were read on an EnVision™ Multilabel Reader using the Ultra-Sensitive luminescence module. IC50 values were calculated with GraphPad Prism v 5.01 using symmetrical sigmoidal dose-response least squares fit with Hill slope fixed to −1 and top constrain to 100% or GeneData Screener using a 4-parameter logistic model to fit dose response curves.
# (§4) Alternatively, compounds could be assayed with a 384 well plate format:
# (§5) Compounds were pre-spotted into 384 well plates with a 22-point serial dilution of compound, using a top concentration of 10 or 50 μM, 1:2 serial dilution steps and, a DMSO-only control. HCT116 MTAP null and WT cells were then seeded as above and after 6 days effects on cell viability were measured with the CellTiter-Glo® Luminescent Cell Viability Assay (Promega). Assay plates were read as above and IC50 values were calculated with GeneData Screener using a 4-parameter logistic model to fit dose response curves. The reported IC50 represents the value where the curve transits 50% of control.
# HCT116 WT cells = test: HCT116 WT (parent) cell line proliferation / cell viability (CellTiter-Glo, 6 days); format: cell-based; details: Homo sapiens, HCT-116, 144 h, 6 days treatment
# Description: as §1, §2, §3, §4, §5
structure (smiles),measurement,setting,value
"C[C@@H]1OCc2c(N)nc3ccc(C(=O)N(C)C4COc5cc(C(F)(F)F)ccc54)cc3c21 (mixture of isomers) [Example 205, (1R)-4-amino-N,1-dimethyl-N-((3S)-6-(trifluoromethyl)-2,3-dihydro-1-benzofuran-3-yl)-1,3-dihydrofuro[3,4-c]quinoline-8-carboxamide and (1S)-4-amino-N,1-dimethyl-N-((3S)-6-(trifluoromethyl)-2,3-dihydro-1-benzofuran-3-yl)-1,3-dihydrofuro[3,4-c]quinoline-8-carboxamide]",IC50,HCT116 MTAP null cells,360 nM
same,IC50,HCT116 WT cells,12300 nM
"CN=S(C)(=O)c1ccc2c(c1)OC[C@H]2N(C)C(=O)c1ccc2nc(N)c3c(c2c1)COC3 (mixture of isomers) [Example 447, 4-amino-N-((3S)-6-((R)-N,S-dimethylsulfonimidoyl)-2,3-dihydro-1-benzofuran-3-yl)-N-methyl-1,3-dihydrofuro[3,4-c]quinoline-8-carboxamide and 4-amino-N-((3S)-6-((S)-N,S-dimethylsulfonimidoyl)-2,3-dihydro-1-benzofuran-3-yl)-N-methyl-1,3-dihydrofuro[3,4-c]quinoline-8-carboxamide]",IC50,HCT116 MTAP null cells,724 nM
same,IC50,HCT116 WT cells,24900 nM
"CN=S(C)(=O)c1ccc2c(c1)OC[C@H]2N(C)C(=O)c1cc2c3c(c(N)nc2cn1)COC3 (mixture of isomers) [Example 456, 4-amino-N-((3S)-6-((R)-N,S-dimethylsulfonimidoyl)-2,3-dihydro-1-benzofuran-3-yl)-N-methyl-1,3-dihydrofuro[3,4-c][1,7]naphthyridine-8-carboxamide and 4-amino-N-((3S)-6-((S)-N,S-dimethylsulfonimidoyl)-2,3-dihydro-1-benzofuran-3-yl)-N-methyl-1,3-dihydrofuro[3,4-c][1,7]naphthyridine-8-carboxamide]",IC50,HCT116 MTAP null cells,842 nM
same,IC50,HCT116 WT cells,24100 nM
"CN(C(=O)c1cc2c3c(c(N)nc2cc1F)COC3)[C@@H]1COc2cc(C(F)(F)F)cnc21 (mixture of isomers) [Example 461, 4-amino-7-fluoro-N-methyl-N-((3R)-6-(trifluoromethyl)-2,3-dihydrofuro[3,2-b]pyridin-3-yl)-1,3-dihydrofuro[3,4-c]quinoline-8-carboxamide and 4-amino-7-fluoro-N-methyl-N-((3S)-6-(trifluoromethyl)-2,3-dihydrofuro[3,2-b]pyridin-3-yl)-1,3-dihydrofuro[3,4-c]quinoline-8-carboxamide]",IC50,HCT116 MTAP null cells,871 nM
same,IC50,HCT116 WT cells,38300 nM
"CN=S(C)(=O)c1ccc2c(c1)OC[C@H]2N(C)C(=O)c1cc2c3c(c(N)nc2cc1F)COC3 (mixture of isomers) [Example 463, 4-amino-N-((3S)-6-((R)-N,S-dimethylsulfonimidoyl)-2,3-dihydro-1-benzofuran-3-yl)-7-fluoro-N-methyl-1,3-dihydrofuro[3,4-c]quinoline-8-carboxamide and 4-amino-N-((3S)-6-((S)-N,S-dimethylsulfonimidoyl)-2,3-dihydro-1-benzofuran-3-yl)-7-fluoro-N-methyl-1,3-dihydrofuro[3,4-c]quinoline-8-carboxamide]",IC50,HCT116 MTAP null cells,134 nM
same,IC50,HCT116 WT cells,14700 nM
"CN(C(=O)c1ccc2nc(N)c3c(c2c1)COC3)C1COc2cc(C#N)ccc21 (racemic) [Example 201, 4-amino-N-((3R)-6-cyano-2,3-dihydro-1-benzofuran-3-yl)-N-methyl-1,3-dihydrofuro[3,4-c]quinoline-8-carboxamide and 4-amino-N-((3S)-6-cyano-2,3-dihydro-1-benzofuran-3-yl)-N-methyl-1,3-dihydrofuro[3,4-c]quinoline-8-carboxamide]",IC50,HCT116 MTAP null cells,149 nM
same,IC50,HCT116 WT cells,5820 nM
"CN(C(=O)c1ccc2nc(N)c3c(c2c1)COC3)C1COc2cc(Br)ccc21 (racemic) [Example 203, 4-amino-N-((3R)-6-bromo-2,3-dihydro-1-benzofuran-3-yl)-N-methyl-1,3-dihydrofuro[3,4-c]quinoline-8-carboxamide and 4-amino-N-((3S)-6-bromo-2,3-dihydro-1-benzofuran-3-yl)-N-methyl-1,3-dihydrofuro[3,4-c]quinoline-8-carboxamide]",IC50,HCT116 MTAP null cells,93 nM
same,IC50,HCT116 WT cells,4590 nM
"N#CCN(C(=O)c1cc2c3c(c(N)nc2cn1)COC3)C1COc2cc(C(F)(F)F)ccc21 (racemic) [Example 208, 4-amino-N-(cyanomethyl)-N-((3R)-6-(trifluoromethyl)-2,3-dihydro-1-benzofuran-3-yl)-1,3-dihydrofuro[3,4-c][1,7]-naphthyridine-8-carboxamide and 4-amino-N-(cyanomethyl)-N-((3S)-6-(trifluoromethyl)-2,3-dihydro-1-benzofuran-3-yl)-1,3-dihydrofuro[3,4-c][1,7]-naphthyridine-8-carboxamide]",IC50,HCT116 MTAP null cells,553 nM
same,IC50,HCT116 WT cells,16600 nM
"CN(C(=O)c1cc2c3c(c(N)nc2cc1F)COC3)C1c2ccc(C(F)(F)F)nc2CC1(C)C (racemic) [Example 213, 4-amino-N-((5R)-6,6-dimethyl-2-(trifluoromethyl)-6,7-dihydro-5H-cyclopenta[b]-pyridin-5-yl)-7-fluoro-N-methyl-1,3-dihydrofuro[3,4-c]-quinoline-8-carboxamide and 4-amino-N-((5S)-6,6-dimethyl-2-(trifluoromethyl)-6,7-dihydro-5H-cyclopenta[b]-pyridin-5-yl)-7-fluoro-N-methyl-1,3-dihydrofuro[3,4-c]-quinoline-8-carboxamide]",IC50,HCT116 MTAP null cells,365 nM
same,IC50,HCT116 WT cells,12900 nM
"CN(C(=O)c1cc2c3c(c(N)nc2cc1F)COC3)C1c2ccc(C(F)(F)F)nc2CC1(F)F (racemic) [Example 215, 4-amino-N-((5R)-6,6-difluoro-2-(trifluoromethyl)-6,7-dihydro-5H-cyclopenta[b]-pyridin-5-yl)-7-fluoro-N-methyl-1,3-dihydrofuro[3,4-c]-quinoline-8-carboxamide and 4-amino-N-((5S)-6,6-difluoro-2-(trifluoromethyl)-6,7-dihydro-5H-cyclopenta[b]pyridin-5-yl)-7-fluoro-N-methyl-1,3-dihydro-furo[3,4-c] quinoline-8-carboxamide]",IC50,HCT116 MTAP null cells,427 nM
same,IC50,HCT116 WT cells,15000 nM
"CN(C(=O)c1ccc2nc(N)c3cnn(C)c3c2c1)C1COc2ncc(C(F)(F)F)cc21 (racemic) [Example 226, 4-amino-N,1-dimethyl-N-((3R)-5-(trifluoromethyl)-2,3-dihydrofuro[2,3-b]pyridin-3-yl)-1H-pyrazolo[4,3-c]quinoline-8-carboxamide and 4-amino-N,1-dimethyl-N-((3S)-5-(trifluoromethyl)-2,3-dihydro-furo[2,3-b]pyridin-3-yl)-1H-pyrazolo[4,3-c]quinoline-8-carboxamide]",IC50,HCT116 MTAP null cells,38 nM
same,IC50,HCT116 WT cells,2150 nM
"CCN(C(=O)c1ccc2nc(N)c3cnn(C)c3c2c1)C1COc2cc(C(F)(F)F)ccc21 (racemic) [Example 228, 4-amino-N-ethyl-1-methyl-N-((3R)-6-(trifluoromethyl)-2,3-dihydro-1-benzofuran-3-yl)-1H-pyrazolo[4,3-c]quinoline-8-carboxamide and 4-amino-N-ethyl-1-methyl-N-((3S)-6-(trifluoromethyl)-2,3-dihydro-1-benzofuran-3-yl)-1H-pyrazolo[4,3-c]quinoline-8-carboxamide]",IC50,HCT116 MTAP null cells,7 nM
same,IC50,HCT116 WT cells,683 nM
"CN(C(=O)c1ccc2nc(N)c3cnn(C)c3c2c1)C1c2ccc(C(F)(F)F)nc2CC1(F)F (racemic) [Example 233, 4-amino-N-((5R)-6,6-difluoro-2-(trifluoromethyl)-6,7-dihydro-5H-cyclopenta[b]pyridin-5-yl)-N,1-dimethyl-1H-pyrazolo[4,3-c]quinoline-8-carboxamide and 4-amino-N-((5S)-6,6-difluoro-2-(trifluoromethyl)-6,7-dihydro-5H-cyclopenta[b]pyridin-5-yl)-N,1-dimethyl-1H-pyrazolo[4,3-c]quinoline-8-carboxamide]",IC50,HCT116 MTAP null cells,723 nM
same,IC50,HCT116 WT cells,19000 nM
"CN(C(=O)c1cc2c(cc1F)nc(N)c1cnn(C)c12)C1COc2nc(C(F)(F)F)ccc21 (racemic) [Example 242, 4-amino-7-fluoro-N,1-dimethyl-N-((3R)-6-(trifluoromethyl)-2,3-dihydrofuro[2,3-b]pyridin-3-yl)-1H-pyrazolo[4,3-c]-quinoline-8-carboxamide and 4-amino-7-fluoro-N,1-dimethyl-N-((3S)-6-(trifluoromethyl)-2,3-dihydrofuro[2,3-b]pyridin-3-yl)-1H-pyrazolo[4,3-c]-quinoline-8-carboxamide]",IC50,HCT116 MTAP null cells,5 nM
same,IC50,HCT116 WT cells,533 nM
